According to patent US9434743B2, “Indazole derivatives” (TAKEDA PHARMACEUTICAL COMPANY LIMITED, priority 2012, dated 2016):

Experiments:
[1] = target: T1, human MetAP2 enzyme (Homo sapiens, UniProt P50579); test: MetAP2 enzyme assay, enzyme complexed with cobalt ions; details: MetAP2 Co pIC50, MetAP2 enzyme complexed with cobalt ions; Met-AMC substrate at Km
[2] = target: T1, human MetAP2 enzyme; test: MetAP2 enzyme assay, enzyme complexed with manganese ions; details: MetAP2 Mn pIC50, MetAP2 enzyme complexed with manganese ions; Met-AMC substrate at Km

T1 sequence (P50579 whole entry): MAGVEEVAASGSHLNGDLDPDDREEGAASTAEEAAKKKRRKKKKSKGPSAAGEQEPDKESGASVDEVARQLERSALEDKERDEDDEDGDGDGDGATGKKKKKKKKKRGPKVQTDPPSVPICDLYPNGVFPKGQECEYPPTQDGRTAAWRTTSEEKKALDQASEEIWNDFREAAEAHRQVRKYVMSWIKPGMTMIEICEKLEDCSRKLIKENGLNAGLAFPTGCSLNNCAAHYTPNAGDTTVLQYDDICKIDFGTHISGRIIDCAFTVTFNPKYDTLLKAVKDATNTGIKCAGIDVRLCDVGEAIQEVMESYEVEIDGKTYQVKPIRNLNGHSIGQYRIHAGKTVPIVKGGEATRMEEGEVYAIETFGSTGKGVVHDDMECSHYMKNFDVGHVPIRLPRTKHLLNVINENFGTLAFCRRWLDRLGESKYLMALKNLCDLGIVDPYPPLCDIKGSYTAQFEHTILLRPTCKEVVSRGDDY

| SMILES | IC50 [1] [nM] | IC50 [2] [nM] |
| --- | --- | --- |
| COc1ccc(N)c(-c2cc(C(F)(F)F)cc3[nH]ncc23)n1 [Example 184, 6-methoxy-2-(6-(trifluoromethyl)-1H-indazol-4-yl)pyridin-3-amine] | 501 | 20 |
| Cc1c(-c2cc(C(F)(F)F)cc3[nH]ncc23)cnn1C [Example 79, 4-(1,5-dimethyl-1H-pyrazol-4-yl)-6-(trifluoromethyl)-1H-indazole] | 25.1 | 10 |
| Cn1cc(-c2cc(C(F)(F)F)cc3[nH]ncc23)c(CO)n1 [Example 220, (1-methyl-4-(6-(trifluoromethyl)-1H-indazol-4-yl)-1H-pyrazol-3-yl)methanol] | 79.4 | 6.31 |
| COc1ccc(-c2cc(C(F)(F)F)cc3[nH]ncc23)c(CO)c1 [Example 189, (5-methoxy-2-(6-(trifluoromethyl)-1H-indazol-4-yl)phenyl)methanol] | 50.1 | 5.01 |
| Cc1nnc(-c2ccc(-c3cc(C(F)(F)F)cc4[nH]ncc34)cc2)o1 [Example 120, 2-methyl-5-(4-(6-(trifluoromethyl)-1H-indazol-4-yl)phenyl)-1,3,4-oxadiazole] | 63.1 | 15.8 |
| O=C(NCCO)c1cncc(-c2cc(C(F)(F)F)cc3[nH]ncc23)c1 [Example 290, N-(2-hydroxyethyl)-5-(6-(trifluoromethyl)-1H-indazol-4-yl)nicotinamide] | 251 | 7.94 |
| O=S(=O)(NCCO)c1ccc(-c2cc(C(F)(F)F)cc3[nH]ncc23)cc1 [Example 224, N-(2-hydroxyethyl)-4-(6-(trifluoromethyl)-1H-indazol-4-yl)benzenesulfonamide] | 39.8 | 2.51 |
| Cn1ncc2ccc(-c3cc(C(F)(F)F)cc4[nH]ncc34)cc21 [Example 24, 1′-methyl-6-(trifluoromethyl)-1H,1′H-4,6′-biindazole] | 31.6 | 12.6 |
| O=C(NCCO)c1cc(-c2cc(C(F)(F)F)cc3[nH]ncc23)ccn1 [Example 308, N-(2-hydroxyethyl)-4-(6-(trifluoromethyl)-1H-indazol-4-yl)picolinamide] | 79.4 | 6.31 |
| O=S(=O)(CCO)c1ccccc1-c1cc(C(F)(F)F)cc2[nH]ncc12 [Example 182, 2-(2-(6-(trifluoromethyl)-1H-indazol-4-yl)phenylsulfonyl)ethanol] | 794 | 25.1 |
| N#CCNC(=O)c1c[nH]c(=O)c(-c2cc(C(F)(F)F)cc3[nH]ncc23)c1 [Example 333, N-(cyanomethyl)-6-oxo-5-(6-(trifluoromethyl)-1H-indazol-4-yl)-1,6-dihydropyridine-3-carboxamide] | 251 | 12.6 |
| Cc1nccc(N)c1-c1cc(C(F)(F)F)cc2[nH]ncc12 [Example 252, 2-methyl-3-(6-(trifluoromethyl)-1H-indazol-4-yl)pyridin-4-amine] | 1580 | 100 |
| FC(F)(F)c1cc(-c2cccc3cc[nH]c23)c2cn[nH]c2c1 [Example 76, 4-(1H-indol-7-yl)-6-(trifluoromethyl)-1H-indazole] | 398 | 39.8 |
| Cc1nc(N2C[C@H]3C[C@H]3C2C(N)=O)ncc1-c1cc(C(F)(F)F)cc2[nH]ncc12 (stereo partly drawn) [Example 415, (1R,5S)-3-(4-methyl-5-(6-(trifluoromethyl)-1H-indazol-4-yl)pyrimidin-2-yl)-3-azabicyclo[3.1.0]hexane-2-carboxamide] | 10 | 7.94 |
| COC(=O)c1ccc(-c2cc(C(F)(F)F)cc3[nH]ncc23)cn1 [Example 269, methyl 5-(6-(trifluoromethyl)-1H-indazol-4-yl)picolinate] | 63.1 | 3.98 |
| CNc1ncc(-c2cc(C(F)(F)F)cc3[nH]ncc23)cn1 [Example 196, N-methyl-5-(6-(trifluoromethyl)-1H-indazol-4-yl)pyrimidin-2-amine] | 63.1 | 6.31 |
| COc1ccc(OC)c(-c2cc(C(F)(F)F)cc3[nH]ncc23)c1 [Example 86, 4-(2,5-dimethoxyphenyl)-6-(trifluoromethyl)-1H-indazole] | 15.8 | 3.16 |
| FC(F)(F)c1cc(-c2ccc(OCC3CC3)nc2)c2cn[nH]c2c1 [Example 58, 4-(6-(cyclopropylmethoxy)pyridin-3-yl)-6-(trifluoromethyl)-1H-indazole] | 126 | 12.6 |
| Nc1cc(Cl)cnc1-c1cc(C(F)(F)F)cc2[nH]ncc12 [Example 216, 5-chloro-2-(6-(trifluoromethyl)-1H-indazol-4-yl)pyridin-3-amine] | 398 | 10 |
| CS(=O)(=O)c1cccc(-c2cc(C(F)(F)F)cc3[nH]ncc23)c1 [Example 103, 4-(3-(methylsulfonyl)phenyl)-6-(trifluoromethyl)-1H-indazole] | 50.1 | 6.31 |

| SMILES | IC50 [1] [nM] | IC50 [2] [nM] |
| --- | --- | --- |
| Cn1cc(-c2cc(C(F)(F)F)cc3[nH]ncc23)c(=O)n(C)c1=O [Example 82, 1,3-dimethyl-5-(6-(trifluoromethyl)-1H-indazol-4-yl)pyrimidine-2,4(1H,3H)-dione] | 501 | 10 |
| Cc1c(-c2cc(C(F)(F)F)cc3[nH]ncc23)c(N)nn1C [Example 381, 1,5-dimethyl-4-(6-(trifluoromethyl)-1H-indazol-4-yl)-1H-pyrazol-3-amine] | 39.8 | 6.31 |
| Cc1nc(N2CCN[C@H](C)C2)ccc1-c1cc(C(F)(F)F)cc2[nH]ncc12 [Example 414, (R)-4-(2-methyl-6-(3-methylpiperazin-1-yl)pyridin-3-yl)-6-(trifluoromethyl)-1H-indazole] | 10 | 3.98 |
| NS(=O)(=O)c1cncc(-c2cc(C(F)(F)F)cc3[nH]ncc23)c1 [Example 346, 5-(6-(trifluoromethyl)-1H-indazol-4-yl)pyridine-3-sulfonamide] | 100 | 5.01 |
| Cc1nc(C(=O)NCCO)ccc1-c1cc(C(F)(F)F)cc2[nH]ncc12 [Example 387, N-(2-hydroxyethyl)-6-methyl-5-(6-(trifluoromethyl)-1H-indazol-4-yl)picolinamide] | 25.1 | 6.31 |
| NC(=O)c1ccc(F)c(-c2cc(C(F)(F)F)cc3[nH]ncc23)c1 [Example 326, 4-fluoro-3-(6-(trifluoromethyl)-1H-indazol-4-yl)benzamide] | 31.6 | 12.6 |
| CS(=O)(=O)c1ccccc1-c1cc(C(F)(F)F)cc2[nH]ncc12 [Example 365, 4-(2-(methylsulfonyl)phenyl)-6-(trifluoromethyl)-1H-indazole] | 1580 | 79.4 |
| CN(C)C(=O)c1cccc(-c2cc(C(F)(F)F)cc3[nH]ncc23)c1 [Example 121, N,N-dimethyl-3-(6-(trifluoromethyl)-1H-indazol-4-yl)benzamide] | 63.1 | 6.31 |
| FC(F)(F)c1cc(-c2ccc(N3CCOCC3)nc2)c2cn[nH]c2c1 [Example 89, 4-(5-(6-(trifluoromethyl)-1H-indazol-4-yl)pyridin-2-yl)morpholine] | 20 | 3.98 |
| Cc1nn(C)cc1-c1cc(C(F)(F)F)cc2[nH]ncc12 [Example 39, 4-(1,3-dimethyl-1H-pyrazol-4-yl)-6-(trifluoromethyl)-1H-indazole] | 31.6 | 12.6 |
| OCCc1cccc(-c2cc(C(F)(F)F)cc3[nH]ncc23)c1 [Example 106, 2-(3-(6-(trifluoromethyl)-1H-indazol-4-yl)phenyl)ethanol] | 158 | 12.6 |
| Cn1c(-c2cc(C(F)(F)F)cc3[nH]ncc23)nc2c1c(=O)[nH]c(=O)n2C [Example 167, 3,7-dimethyl-8-(6-(trifluoromethyl)-1H-indazol-4-yl)-1H-purine-2,6(3H,7H)-dione] | 158 | 3.98 |
| Cc1nn(CC(=O)N2CCOCC2)c(C)c1-c1cc(C(F)(F)F)cc2[nH]ncc12 [Example 317, 2-(3,5-dimethyl-4-(6-(trifluoromethyl)-1H-indazol-4-yl)-1H-pyrazol-1-yl)-1-morpholinoethanone] | 63.1 | 20 |
| CN(C)C(=O)c1ccc(-c2cc(C(F)(F)F)cc3[nH]ncc23)cc1 [Example 119, N,N-dimethyl-4-(6-(trifluoromethyl)-1H-indazol-4-yl)benzamide] | 100 | 7.94 |
| C[C@H](O)CNC(=O)c1cc(-c2cc(C(F)(F)F)cc3[nH]ncc23)c(=O)n(C)c1 [Example 359, (S)—N-(2-hydroxypropyl)-1-methyl-6-oxo-5-(6-(trifluoromethyl)-1H-indazol-4-yl)-1,6-dihydropyridine-3-carboxamide] | 501 | 10 |
| N#Cc1ccc(CO)c(-c2cc(C(F)(F)F)cc3[nH]ncc23)c1 [Example 140, 4-(hydroxymethyl)-3-(6-(trifluoromethyl)-1H-indazol-4-yl)benzonitrile] | 31.6 | 3.98 |
| COCC(=O)Nc1ccc(-c2cc(C(F)(F)F)cc3[nH]ncc23)c(C)n1 [Example 258, 2-methoxy-N-(6-methyl-5-(6-(trifluoromethyl)-1H-indazol-4-yl)pyridin-2-yl)acetamide] | 25.1 | 7.94 |
| FC(F)(F)c1cc(-c2ccc3[nH]cnc3c2)c2cn[nH]c2c1 [Example 17, 4-(1H-benzo[d]imidazol-5-yl)-6-(trifluoromethyl)-1H-indazole] | 20 | 7.94 |
| CN1CCN(C(=O)c2cc(-c3cc(C(F)(F)F)cc4[nH]ncc34)ccn2)CC1 [Example 284, (4-methylpiperazin-1-yl)(4-(6-(trifluoromethyl)-1H-indazol-4-yl)pyridin-2-yl)methanone] | 79.4 | 7.94 |
| Cc1nn(CCN(C)C)c(C)c1-c1cc(C(F)(F)F)cc2[nH]ncc12 [Example 219, 2-(3,5-dimethyl-4-(6-(trifluoromethyl)-1H-indazol-4-yl)-1H-pyrazol-1-yl)-N,N-dimethylethanamine] | 50.1 | 12.6 |
